The test system of the test is pyramidal neurons of Ptpn11^D61G/+ mice. Description: Whole-cell voltage clamp mEPSC recordings in Ptpn11^D61G/+ mice. The test is classed as cell-based. The settings on record: SL327 1 μM. Here is the method:
FIG. 4 are graphs showing PTPN11^D61G overexpression enhances excitatory synaptic function through increased Ras-Erk signaling. Panel a) AMPA receptor-mediated currents were measured at the peak of the currents at −65 mV, and NMDA currents were measured 50 ms after onset at +40 mV. The average of 15 traces is shown. Scale, 100 pA and 40 ms. Panel b) Group data showing the increased AMPA:NMDA current ratio in AAV-PTPN11^D61G mice (1.51±0.11, n=10 cells from 5 mice) compared with AAV-GFP mice (0.96±0.05, n=10 cells from 5 mice, t-test, ***P<0.001). […] Two-way ANOVA, interaction between viral treatment and drug, F(1, 31)=10.53, **P<0.01. […] Panel c) Paired-pulse facilitation ratio is unaffected by PTPN11^D61G. There was no significant difference at 25 ms or 50 ms intervals between two groups (AAV-PTPN11^D61G, n=12 cells from 5 mice; AAV-GFP, n=11 cells from 5 mice). Repeated-measures ANOVA, F(1, 21)=0.010, P=0.921. […]
Whole-cell voltage clamp recordings were done with an Axopatch 200B amplifier (Axon Instrument) as previously described^29, 30. […] For mEPSC recordings, voltage clamp recordings were performed at −60 mV in the presence of 100 μM picrotoxin and 1 μM TTX. mIPSCs were measured at +10 mV in the presence of 1 mM kynurenic acid and 1 μM TTX. […]

Our source for the mEPSC frequency values is patent US10835513B2, “Methods and treatments for the learning and memory deficits associated with Noonan syndrome” (The Regents of the University of California, priority 2013, dated 2020).

The structures appear in SMILES notation.

`N#C/C(=C(/N)Sc1ccc(N)cc1)c1ccccc1C(F)(F)F` [SL327]: the mEPSC frequency (Ptpn11^D61G/+ mice) stood at 2.87±1.02 and the mEPSC frequency (WT littermates) was 2.46±0.63.
